Measured values from ChEMBL document CHEMBL3351880, “Unexpected DNA affinity and sequence selectivity through core rigidity in guanidinium-based minor groove binders” (J Med Chem, 2014).
Calls of active or inactive are those of the source. No cut-off for these calls is given here.

Experiments:
Salmonidae [1] = test: Binding affinity to salmon sperm DNA assessed as increase in DNA thermal melting temperature at 15 uM spectrophotometry
[2] = Selectivity index, ratio of binding affinity to (AT)4 DNA hairpin sequence (unknown origin) to binding affinity to AATT DNA hairpin sequence (unknown origin)
[3] = Binding affinity to poly(dA).poly(dT) oligonucleotide DNA (unknown origin) assessed as increase in DNA thermal melting temperature at 15 uM spectrophotometry
Salmonidae [4] = test: Binding affinity to salmon sperm DNA assessed as change in ICD signals by CD spectroscopy
[5] = Binding affinity to poly(dA.dT)2 oligonucleotide DNA (unknown origin) assessed as change in ICD signals by CD spectroscopy
[6] = Binding affinity to (CG)4 DNA hairpin sequence (unknown origin) by SPR assay
[7] = Binding affinity to poly(dG.dC)2 oligonucleotide DNA (unknown origin) by UV spectroscopy
[8] = Binding affinity to (AT)4 DNA hairpin sequence (unknown origin) by SPR assay
[9] = Binding affinity to poly(dA.dT)2 oligonucleotide DNA (unknown origin) assessed as increase in DNA thermal melting temperature at 15 uM spectrophotometry
Salmonidae [10] = test: Binding affinity to salmon sperm DNA by UV spectroscopy
[11] = Binding affinity to AATT DNA hairpin sequence (unknown origin) by SPR assay
[12] = Binding affinity to poly(dA.dT)2 oligonucleotide DNA (unknown origin) by UV spectroscopy
[13] = Binding affinity to poly(dG.dC)2 oligonucleotide DNA (unknown origin) assessed as change in ICD signals by CD spectroscopy

Compound	ΔTm (Salmonidae [1])	Selectivity Index [2]	ΔTm [3]	Activity (Salmonidae [4])	Activity [5]	K [6]	K [7]	K [8]	ΔTm [9]	K (Salmonidae [10])	K [11]	K [12]	Activity [13]
c1cc2c(cc1NC1=NCCN1)Cc1ccc(NC3=NCCN3)cc1-2	9 °C	< 2.4	31 °C	Active	Active	6.5 ×10⁵ /M	9.2 ×10⁵ /M	36.2 ×10⁵ /M	26 °C	1.9 ×10⁵ /M	15 ×10⁵ /M	14 ×10⁵ /M	–
N=C(N)Nc1ccc2c(c1)Cc1ccc(NC(=N)N)cc1C2	4 °C	–	4 °C	inactive	inactive	–	–	–	-3 °C	–	–	–	–
N=C(N)Nc1ccc2c(c1)Cc1ccc(NC3=NCCN3)cc1-2	4 °C	–	20 °C	Active	Active	–	–	–	22 °C	–	–	–	Active
Nc1ccc2cc3ccc(N)cc3nc2c1	–	< 2.4	–	–	–	6.5 ×10⁵ /M	–	12.2 ×10⁵ /M	–	–	5.7 ×10⁵ /M	–	–
c1cc(NC2=NCCN2)ccc1CCc1ccc(NC2=NCCN2)cc1	–	< 2.4	–	–	–	< 1 ×10⁵ /M	–	1 ×10⁵ /M	–	–	< 1 ×10⁵ /M	–	–
c1cc(C2CCN(c3ccc(NC4=NCCN4)cc3)CC2)ccc1NC1=NCCN1	–	< 2.4	–	–	–	1.5 ×10⁵ /M	–	1.4 ×10⁵ /M	–	–	1.1 ×10⁵ /M	–	–
c1cc2c(cc1NC1=NCCN1)Cc1ccc(NC3=NCCN3)cc1C2	20 °C	< 2.4	12 °C	inactive	inactive	5.5 ×10⁵ /M	–	5.1 ×10⁵ /M	1 °C	–	2.7 ×10⁵ /M	–	–
c1cc(NC2=NCCN2)cc(Oc2ccc(NC3=NCCN3)cc2)c1	–	< 2.4	–	–	–	< 1 ×10⁵ /M	–	1.5 ×10⁵ /M	–	–	< 1 ×10⁵ /M	–	–
c1cc(NC2=NCCN2)cc(Sc2ccc(NC3=NCCN3)cc2)c1	–	< 2.4	–	–	–	2.5 ×10⁵ /M	–	3.2 ×10⁵ /M	–	–	1.6 ×10⁵ /M	–	–
